This assay is described as follows: Inhibition of Burkholderia pseudomallei beta-CA incubated for 15 mins by stopped-flow CO2 hydration assay.

SMILES strings stand for the structures.

In general, Ki refers to the equilibrium dissociation constant of an inhibitor or competing ligand from its target. Low values mean a stronger hold on the target, high ones a looser hold on the target.

`N#CO` [SODIUM CYANATE] had a Ki of 6.8 mM.
In the case of `O=BOB(O)OB(O)OB=O` [SODIUM TETRABORATE], the Ki was above 100 mM.
For `OB(O)c1ccccc1` [PHENYLBORONIC ACID], the inhibition constant Ki is above 100 mM.
The figure for `[F-].[Na+]` [SODIUM FLUORIDE] is above 100 mM; for `F[B-](F)(F)F.[Na+]` [SODIUM TETRAFLUOROBORATE] it is above 100 mM.
Turning to `[O-][Cl+3]([O-])([O-])O` [SODIUM PERCHLORATE], the Ki is above 100 mM.
For the compound `O=S(=O)(O)OOS(=O)(=O)O` [SODIUM PERSULFATE], the Ki was above 100 mM.
`O=S([O-])O.[Na+]` [SODIUM BISULFITE]: the Ki was above 100 mM.
Compound `[N-]=[N+]=[N-]` [SODIUM AZIDE] returned a Ki above 100 mM.
For `F[P-](F)(F)(F)(F)F.[Na+]`, the Ki is above 100 mM.
